According to ChEMBL document CHEMBL1128884, “Selective inhibition of the tyrosine kinase pp60src by analogs of 5,10-dihydropyrimido[4,5-b]quinolin-4(1H)-one” (Bioorg Med Chem Lett, 1995):

Columns and labels:
[1] = target: cAMP-dependent protein kinase (PKA) (Homo sapiens, UniProt P22694+P17612+P22612); test: Inhibition of cAMP-dependent kinase (Protein kinase A); assay type: protein assay
[2] = target: Proto-oncogene tyrosine-protein kinase Src (Homo sapiens, UniProt P12931); test: Inhibition of cellular oncogene pp60 c-src
[3] = target: Epidermal growth factor receptor (Homo sapiens, UniProt P00533); test: Inhibition of epidermal growth factor receptor (EGFR)
Sequence of Epidermal growth factor receptor (P00533 whole entry): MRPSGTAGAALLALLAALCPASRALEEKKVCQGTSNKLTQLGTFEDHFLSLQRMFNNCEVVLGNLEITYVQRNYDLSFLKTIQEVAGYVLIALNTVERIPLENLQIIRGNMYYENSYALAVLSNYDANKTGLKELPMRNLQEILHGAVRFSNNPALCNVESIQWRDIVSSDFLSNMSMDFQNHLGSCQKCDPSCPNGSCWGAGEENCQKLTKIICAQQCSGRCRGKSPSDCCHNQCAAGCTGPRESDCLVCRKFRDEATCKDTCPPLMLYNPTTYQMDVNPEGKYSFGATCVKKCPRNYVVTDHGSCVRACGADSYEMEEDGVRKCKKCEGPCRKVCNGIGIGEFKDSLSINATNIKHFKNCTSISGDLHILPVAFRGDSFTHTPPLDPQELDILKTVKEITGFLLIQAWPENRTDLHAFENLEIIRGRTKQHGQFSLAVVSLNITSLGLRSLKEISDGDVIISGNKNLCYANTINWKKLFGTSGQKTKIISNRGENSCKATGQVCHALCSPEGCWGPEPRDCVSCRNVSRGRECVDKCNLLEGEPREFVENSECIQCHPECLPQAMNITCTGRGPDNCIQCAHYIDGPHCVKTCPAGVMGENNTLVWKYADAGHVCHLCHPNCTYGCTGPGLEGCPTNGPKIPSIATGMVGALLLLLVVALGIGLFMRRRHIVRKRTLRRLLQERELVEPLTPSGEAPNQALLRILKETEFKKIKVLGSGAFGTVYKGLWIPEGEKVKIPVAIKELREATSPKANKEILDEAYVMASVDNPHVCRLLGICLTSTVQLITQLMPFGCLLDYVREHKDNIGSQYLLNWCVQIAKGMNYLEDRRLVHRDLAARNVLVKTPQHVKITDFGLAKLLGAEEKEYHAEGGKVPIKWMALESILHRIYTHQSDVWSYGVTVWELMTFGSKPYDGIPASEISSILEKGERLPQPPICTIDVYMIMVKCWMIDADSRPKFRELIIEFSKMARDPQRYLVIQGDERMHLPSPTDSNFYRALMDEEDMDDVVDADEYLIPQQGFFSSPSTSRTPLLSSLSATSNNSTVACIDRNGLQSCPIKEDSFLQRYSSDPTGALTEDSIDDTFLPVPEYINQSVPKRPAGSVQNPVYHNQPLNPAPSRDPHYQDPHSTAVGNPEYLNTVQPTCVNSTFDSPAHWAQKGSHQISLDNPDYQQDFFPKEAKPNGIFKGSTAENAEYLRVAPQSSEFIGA

Sequence of Proto-oncogene tyrosine-protein kinase Src (P12931 2-536 limits assumed): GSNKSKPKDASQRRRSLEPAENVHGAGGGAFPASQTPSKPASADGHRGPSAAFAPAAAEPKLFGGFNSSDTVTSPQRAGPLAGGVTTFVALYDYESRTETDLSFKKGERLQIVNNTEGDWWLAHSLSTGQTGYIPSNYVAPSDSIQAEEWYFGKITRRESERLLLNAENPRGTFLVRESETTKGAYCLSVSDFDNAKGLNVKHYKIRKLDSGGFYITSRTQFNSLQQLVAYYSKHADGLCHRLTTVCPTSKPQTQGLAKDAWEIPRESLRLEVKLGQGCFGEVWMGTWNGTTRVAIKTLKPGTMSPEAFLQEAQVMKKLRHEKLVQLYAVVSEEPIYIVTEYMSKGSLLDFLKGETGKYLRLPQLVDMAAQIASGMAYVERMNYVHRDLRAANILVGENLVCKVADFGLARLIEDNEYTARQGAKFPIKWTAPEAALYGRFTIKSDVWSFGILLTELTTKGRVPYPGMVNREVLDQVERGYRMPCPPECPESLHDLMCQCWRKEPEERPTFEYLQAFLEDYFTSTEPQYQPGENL

Row | Compound | IC50 [1] [µM] | IC50 [2] [µM] | IC50 [3] [µM]
1 | COc1ccc2c(c1)Nc1ncnc(O)c1C2 | > 3000 | 0.5 | –
2 | Oc1[nH]cnc2nc3ccccc3c1-2 | – | 293 | –
3 | COc1cc2c(cc1OC)Nc1ncn(CCN3CCOCC3)c(=O)c1C2 | > 1000 | 105 | –
4 | COc1cc2c(cc1OC)Nc1ncnc(O)c1C2 | > 3000 | 0.5 | 75
5 | Oc1ncnc2c1Cc1ccccc1N2 | > 3000 | 9.1 | –
6 | COc1ccc2c(c1)Cc1c(O)ncnc1N2 | > 3000 | 3.7 | –
7 | COc1cc2c(cc1OC)Nc1ncn(C)c(=O)c1C2 | > 3000 | 1.2 | 160
8 | Oc1cc(Nc2ccccc2)ncn1 | > 4000 | 1550 | –
9 | COc1cc2cc3c(O)ncnc3nc2cc1OC | > 750 | 32 | –
10 | CCc1nc(O)c2c(n1)Nc1ccccc1C2 | > 3000 | 38 | –
11 | CCN1c2ccccc2Cc2c(O)ncnc21 | > 960 | 550 | –
